From ChEMBL document CHEMBL4507284, “Data for DCP probe BI-1230” (2021)

Key:
[1] = target: Mitogen-activated protein kinase kinase kinase 13 (Homo sapiens) (UniProt O43283); conditions: Compound concentration 1000.0 nM
[2] = test system: Tyrosine-protein kinase ABL1 (Homo sapiens), P00519 [F317L]; conditions: Compound concentration 1000.0 nM
[3] = target: Phosphatidylinositol 4-kinase beta (Homo sapiens) (UniProt Q9UBF8); conditions: Compound concentration 1000.0 nM
[4] = target: Beta-3 adrenergic receptor (Homo sapiens, UniProt P13945); conditions: Compound concentration 10.0 uM
[5] = target: Interferon-induced, double-stranded RNA-activated protein kinase (Homo sapiens) (UniProt P19525); conditions: Compound concentration 1000.0 nM
[6] = target: Wee1-like protein kinase (Homo sapiens) (UniProt P30291); conditions: Compound concentration 1000.0 nM
Sequence of Wee1-like protein kinase (Homo sapiens) (P30291 whole entry, looked up): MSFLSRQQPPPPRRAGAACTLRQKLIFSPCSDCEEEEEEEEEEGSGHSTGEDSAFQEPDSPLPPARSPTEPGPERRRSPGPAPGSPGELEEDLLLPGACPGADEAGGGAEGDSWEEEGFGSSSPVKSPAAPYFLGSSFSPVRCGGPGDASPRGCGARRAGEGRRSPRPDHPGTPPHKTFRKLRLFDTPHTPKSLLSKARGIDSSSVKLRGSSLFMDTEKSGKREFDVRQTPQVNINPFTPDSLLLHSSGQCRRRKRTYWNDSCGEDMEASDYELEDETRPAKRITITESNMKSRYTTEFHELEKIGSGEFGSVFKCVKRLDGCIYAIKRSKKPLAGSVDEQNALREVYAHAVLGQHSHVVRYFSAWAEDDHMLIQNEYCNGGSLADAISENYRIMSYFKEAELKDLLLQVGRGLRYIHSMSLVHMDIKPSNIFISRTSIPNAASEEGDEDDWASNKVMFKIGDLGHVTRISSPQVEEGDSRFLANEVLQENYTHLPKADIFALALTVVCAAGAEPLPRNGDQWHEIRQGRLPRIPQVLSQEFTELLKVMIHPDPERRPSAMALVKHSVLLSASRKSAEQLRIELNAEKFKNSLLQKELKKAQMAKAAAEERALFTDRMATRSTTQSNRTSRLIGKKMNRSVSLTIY

[7] = target: Macrophage colony-stimulating factor 1 receptor (Homo sapiens) (UniProt P07333); conditions: Compound concentration 1000.0 nM
[8] = target: Muscle, skeletal receptor tyrosine-protein kinase (Homo sapiens) (UniProt O15146); conditions: Compound concentration 1000.0 nM
[9] = target: Calcium/calmodulin-dependent protein kinase kinase 2 (Homo sapiens) (UniProt Q96RR4); conditions: Compound concentration 1000.0 nM
Sequence of Calcium/calmodulin-dependent protein kinase kinase 2 (Homo sapiens) (Q96RR4 2-588 limits assumed): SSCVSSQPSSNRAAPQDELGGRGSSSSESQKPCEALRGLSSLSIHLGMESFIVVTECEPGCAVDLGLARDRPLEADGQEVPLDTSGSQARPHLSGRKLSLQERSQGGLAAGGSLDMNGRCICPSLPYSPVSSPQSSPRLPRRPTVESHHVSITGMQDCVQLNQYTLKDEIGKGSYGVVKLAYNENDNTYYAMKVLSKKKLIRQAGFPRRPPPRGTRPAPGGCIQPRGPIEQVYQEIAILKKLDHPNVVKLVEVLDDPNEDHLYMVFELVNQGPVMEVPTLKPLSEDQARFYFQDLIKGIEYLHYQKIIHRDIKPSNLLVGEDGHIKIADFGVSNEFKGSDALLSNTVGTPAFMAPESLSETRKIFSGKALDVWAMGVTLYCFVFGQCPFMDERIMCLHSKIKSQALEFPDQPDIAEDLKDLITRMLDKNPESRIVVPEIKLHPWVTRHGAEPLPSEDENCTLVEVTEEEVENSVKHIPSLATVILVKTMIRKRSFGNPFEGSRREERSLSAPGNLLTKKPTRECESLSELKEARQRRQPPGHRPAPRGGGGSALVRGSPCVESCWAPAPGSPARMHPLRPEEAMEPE

[10] = target: Serine/threonine-protein kinase MRCK gamma (Homo sapiens) (UniProt Q6DT37); conditions: Compound concentration 1000.0 nM
[11] = target: Interleukin-1 receptor-associated kinase 1 (Homo sapiens) (UniProt P51617); conditions: Compound concentration 1000.0 nM
[12] = target: Beta-adrenergic receptor kinase 1 (Homo sapiens) (UniProt P25098); conditions: Compound concentration 1000.0 nM
[13] = target: Alpha-2A adrenergic receptor (Homo sapiens) (UniProt P08913); conditions: Compound concentration 10.0 uM
Sequence of Alpha-2A adrenergic receptor (Homo sapiens) (P08913 whole entry): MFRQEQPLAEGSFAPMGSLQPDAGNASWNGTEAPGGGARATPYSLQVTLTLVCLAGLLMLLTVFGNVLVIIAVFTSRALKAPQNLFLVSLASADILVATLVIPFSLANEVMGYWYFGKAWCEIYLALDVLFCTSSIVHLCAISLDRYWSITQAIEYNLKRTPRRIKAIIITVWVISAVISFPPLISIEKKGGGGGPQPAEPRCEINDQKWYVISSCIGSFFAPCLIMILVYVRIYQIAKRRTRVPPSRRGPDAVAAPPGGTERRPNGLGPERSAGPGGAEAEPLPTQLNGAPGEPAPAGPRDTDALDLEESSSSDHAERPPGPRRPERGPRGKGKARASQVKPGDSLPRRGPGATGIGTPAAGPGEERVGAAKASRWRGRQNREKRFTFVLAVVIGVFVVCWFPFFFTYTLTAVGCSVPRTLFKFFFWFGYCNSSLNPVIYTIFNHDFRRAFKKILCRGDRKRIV

[14] = test system: Tyrosine-protein kinase ABL1 (Homo sapiens), P00519 [T315I]; conditions: Compound concentration 1000.0 nM
[15] = target: RAC-gamma serine/threonine-protein kinase (Homo sapiens) (UniProt Q9Y243); conditions: Compound concentration 1000.0 nM
[16] = target: STE20/SPS1-related proline-alanine-rich protein kinase (Homo sapiens) (UniProt Q9UEW8); conditions: Compound concentration 1000.0 nM
[17] = target: Homeodomain-interacting protein kinase 1 (Homo sapiens) (UniProt Q86Z02); conditions: Compound concentration 1000.0 nM
[18] = target: Sodium-dependent serotonin transporter (Homo sapiens) (UniProt P31645); conditions: Compound concentration 10.0 uM
[19] = target: Phosphatidylinositol 5-phosphate 4-kinase type-2 beta (Homo sapiens) (UniProt P78356); conditions: Compound concentration 1000.0 nM
[20] = target: Dual specificity mitogen-activated protein kinase kinase 1 (Homo sapiens) (UniProt Q02750); conditions: Compound concentration 1000.0 nM
[21] = target: Phosphorylase b kinase regulatory subunit alpha, liver isoform (Homo sapiens) (UniProt P46019); conditions: Compound concentration 1000.0 nM
Sequence of Phosphorylase b kinase regulatory subunit alpha, liver isoform (Homo sapiens) (P46019 whole entry, canonical isoform): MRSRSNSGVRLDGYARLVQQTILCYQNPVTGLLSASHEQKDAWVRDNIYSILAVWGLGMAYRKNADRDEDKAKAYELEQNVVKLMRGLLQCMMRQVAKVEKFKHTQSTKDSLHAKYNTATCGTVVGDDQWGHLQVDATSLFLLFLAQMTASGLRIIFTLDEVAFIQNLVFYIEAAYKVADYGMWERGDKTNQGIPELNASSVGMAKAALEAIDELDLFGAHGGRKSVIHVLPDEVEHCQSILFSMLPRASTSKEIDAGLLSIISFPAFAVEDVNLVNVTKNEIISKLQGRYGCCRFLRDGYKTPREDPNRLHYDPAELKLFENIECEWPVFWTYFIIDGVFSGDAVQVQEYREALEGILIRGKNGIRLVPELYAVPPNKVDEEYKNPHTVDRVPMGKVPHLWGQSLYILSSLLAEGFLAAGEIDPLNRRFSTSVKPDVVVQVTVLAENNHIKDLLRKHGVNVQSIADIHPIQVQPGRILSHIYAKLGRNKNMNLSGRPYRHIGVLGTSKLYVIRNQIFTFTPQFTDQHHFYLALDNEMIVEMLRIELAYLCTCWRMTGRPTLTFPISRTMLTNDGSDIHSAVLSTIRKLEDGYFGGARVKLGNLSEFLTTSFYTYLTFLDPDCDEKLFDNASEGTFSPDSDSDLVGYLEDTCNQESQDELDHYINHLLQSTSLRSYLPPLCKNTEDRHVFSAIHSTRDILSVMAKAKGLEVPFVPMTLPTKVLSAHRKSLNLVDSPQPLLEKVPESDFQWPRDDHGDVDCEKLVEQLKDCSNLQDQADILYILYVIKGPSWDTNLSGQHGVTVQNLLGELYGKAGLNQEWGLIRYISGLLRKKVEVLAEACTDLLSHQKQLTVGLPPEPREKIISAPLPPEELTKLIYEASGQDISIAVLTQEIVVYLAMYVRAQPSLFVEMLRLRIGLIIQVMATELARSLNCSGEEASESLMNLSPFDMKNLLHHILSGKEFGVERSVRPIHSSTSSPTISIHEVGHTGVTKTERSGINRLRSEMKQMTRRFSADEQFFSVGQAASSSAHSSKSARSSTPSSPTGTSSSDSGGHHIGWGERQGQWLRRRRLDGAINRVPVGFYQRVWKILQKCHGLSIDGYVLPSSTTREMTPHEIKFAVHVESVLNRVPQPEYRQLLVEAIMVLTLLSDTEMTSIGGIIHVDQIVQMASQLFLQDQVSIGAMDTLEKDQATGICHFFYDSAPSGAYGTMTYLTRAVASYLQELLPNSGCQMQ

[22] = target: SRSF protein kinase 2 (Homo sapiens) (UniProt P78362); conditions: Compound concentration 1000.0 nM
Sequence of SRSF protein kinase 2 (Homo sapiens) (P78362 whole entry, looked up): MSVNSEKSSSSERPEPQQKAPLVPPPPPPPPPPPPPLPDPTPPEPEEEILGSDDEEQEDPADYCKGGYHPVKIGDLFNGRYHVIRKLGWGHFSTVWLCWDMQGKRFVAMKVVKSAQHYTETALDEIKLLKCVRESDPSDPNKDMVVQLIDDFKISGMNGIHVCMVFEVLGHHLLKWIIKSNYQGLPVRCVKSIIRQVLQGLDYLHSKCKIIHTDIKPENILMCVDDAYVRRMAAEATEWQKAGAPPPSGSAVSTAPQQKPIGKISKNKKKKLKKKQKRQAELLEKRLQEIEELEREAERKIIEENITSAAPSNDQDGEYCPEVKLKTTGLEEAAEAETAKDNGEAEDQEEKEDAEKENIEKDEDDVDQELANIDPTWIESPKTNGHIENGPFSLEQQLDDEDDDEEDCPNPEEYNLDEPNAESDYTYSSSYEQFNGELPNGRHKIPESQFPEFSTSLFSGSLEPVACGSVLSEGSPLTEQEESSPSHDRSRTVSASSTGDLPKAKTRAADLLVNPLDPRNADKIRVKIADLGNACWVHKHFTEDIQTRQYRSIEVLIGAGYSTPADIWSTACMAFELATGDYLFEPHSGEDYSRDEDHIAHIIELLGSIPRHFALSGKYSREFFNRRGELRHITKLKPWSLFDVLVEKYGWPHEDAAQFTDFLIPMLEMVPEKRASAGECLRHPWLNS

[23] = target: Serine/threonine-protein kinase 32B (Homo sapiens) (UniProt Q9NY57); conditions: Compound concentration 1000.0 nM
[24] = target: Serine/threonine-protein kinase PRP4 homolog (Homo sapiens) (UniProt Q13523); conditions: Compound concentration 1000.0 nM
[25] = test system: Epidermal growth factor receptor (Homo sapiens), P00533 [UNDEFINED MUTATION]; conditions: Compound concentration 1000.0 nM
[26] = target: Serine/threonine-protein kinase Nek10 (Homo sapiens) (UniProt Q6ZWH5); conditions: Compound concentration 1000.0 nM
[27] = target: Microtubule-associated serine/threonine-protein kinase 1 (Homo sapiens) (UniProt Q9Y2H9); conditions: Compound concentration 1000.0 nM
[28] = target: Tyrosine-protein kinase JAK2 (Homo sapiens) (UniProt O60674); conditions: Compound concentration 1000.0 nM
[29] = target: Ribosomal protein S6 kinase alpha-2 (Homo sapiens) (UniProt Q15349); conditions: Compound concentration 1000.0 nM
[30] = target: Serine/threonine-protein kinase PAK 5 (Homo sapiens) (UniProt Q9P286); conditions: Compound concentration 1000.0 nM
[31] = target: Mitogen-activated protein kinase kinase kinase 3 (Homo sapiens) (UniProt Q99759); conditions: Compound concentration 1000.0 nM
[32] = test system: Phosphatidylinositol 4,5-bisphosphate 3-kinase catalytic subunit alpha isoform (Homo sapiens), P42336 [E545A]; conditions: Compound concentration 1000.0 nM
[33] = target: Serine/threonine-protein kinase N2 (Homo sapiens) (UniProt Q16513); conditions: Compound concentration 1000.0 nM
[34] = target: Citron Rho-interacting kinase (Homo sapiens) (UniProt O14578); conditions: Compound concentration 1000.0 nM
[35] = target: Mitogen-activated protein kinase kinase kinase kinase 3 (Homo sapiens) (UniProt Q8IVH8); conditions: Compound concentration 1000.0 nM
[36] = target: Tyrosine-protein kinase JAK1 (Homo sapiens) (UniProt P23458); conditions: Compound concentration 1000.0 nM
[37] = target: Non-receptor tyrosine-protein kinase TYK2 (Homo sapiens) (UniProt P29597); conditions: Compound concentration 1000.0 nM
[38] = target: Mitogen-activated protein kinase kinase kinase 15 (Homo sapiens) (UniProt Q6ZN16); conditions: Compound concentration 1000.0 nM
[39] = test system: Mast/stem cell growth factor receptor Kit (Homo sapiens), P10721 [A829P]; conditions: Compound concentration 1000.0 nM
[40] = target: Mu-type opioid receptor (Homo sapiens) (UniProt P35372); conditions: Compound concentration 10.0 uM
Sequence of Mu-type opioid receptor (Homo sapiens) (P35372 whole entry): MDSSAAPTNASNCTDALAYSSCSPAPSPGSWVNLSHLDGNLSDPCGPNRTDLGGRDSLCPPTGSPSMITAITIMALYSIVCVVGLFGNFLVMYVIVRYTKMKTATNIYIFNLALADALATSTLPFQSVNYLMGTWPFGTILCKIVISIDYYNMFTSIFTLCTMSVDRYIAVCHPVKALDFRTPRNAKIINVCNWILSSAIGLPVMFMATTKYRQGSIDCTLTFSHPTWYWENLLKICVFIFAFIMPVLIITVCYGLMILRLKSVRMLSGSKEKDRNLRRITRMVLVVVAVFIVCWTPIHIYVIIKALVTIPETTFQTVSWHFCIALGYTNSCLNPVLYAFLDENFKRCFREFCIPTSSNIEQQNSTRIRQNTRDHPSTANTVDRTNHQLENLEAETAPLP

[41] = target: BDNF/NT-3 growth factors receptor (Homo sapiens) (UniProt Q16620); conditions: Compound concentration 1000.0 nM
[42] = target: Rho-associated protein kinase 1 (Homo sapiens) (UniProt Q13464); conditions: Compound concentration 1000.0 nM
[43] = target: Myosin light chain kinase, smooth muscle (Homo sapiens) (UniProt Q15746); conditions: Compound concentration 1000.0 nM
[44] = target: Ribosomal protein S6 kinase alpha-1 (Homo sapiens) (UniProt Q15418); conditions: Compound concentration 1000.0 nM
[45] = target: Mitogen-activated protein kinase kinase kinase 12 (Homo sapiens) (UniProt Q12852); conditions: Compound concentration 1000.0 nM

Sequence of Mitogen-activated protein kinase kinase kinase 13 (Homo sapiens) (O43283 whole entry): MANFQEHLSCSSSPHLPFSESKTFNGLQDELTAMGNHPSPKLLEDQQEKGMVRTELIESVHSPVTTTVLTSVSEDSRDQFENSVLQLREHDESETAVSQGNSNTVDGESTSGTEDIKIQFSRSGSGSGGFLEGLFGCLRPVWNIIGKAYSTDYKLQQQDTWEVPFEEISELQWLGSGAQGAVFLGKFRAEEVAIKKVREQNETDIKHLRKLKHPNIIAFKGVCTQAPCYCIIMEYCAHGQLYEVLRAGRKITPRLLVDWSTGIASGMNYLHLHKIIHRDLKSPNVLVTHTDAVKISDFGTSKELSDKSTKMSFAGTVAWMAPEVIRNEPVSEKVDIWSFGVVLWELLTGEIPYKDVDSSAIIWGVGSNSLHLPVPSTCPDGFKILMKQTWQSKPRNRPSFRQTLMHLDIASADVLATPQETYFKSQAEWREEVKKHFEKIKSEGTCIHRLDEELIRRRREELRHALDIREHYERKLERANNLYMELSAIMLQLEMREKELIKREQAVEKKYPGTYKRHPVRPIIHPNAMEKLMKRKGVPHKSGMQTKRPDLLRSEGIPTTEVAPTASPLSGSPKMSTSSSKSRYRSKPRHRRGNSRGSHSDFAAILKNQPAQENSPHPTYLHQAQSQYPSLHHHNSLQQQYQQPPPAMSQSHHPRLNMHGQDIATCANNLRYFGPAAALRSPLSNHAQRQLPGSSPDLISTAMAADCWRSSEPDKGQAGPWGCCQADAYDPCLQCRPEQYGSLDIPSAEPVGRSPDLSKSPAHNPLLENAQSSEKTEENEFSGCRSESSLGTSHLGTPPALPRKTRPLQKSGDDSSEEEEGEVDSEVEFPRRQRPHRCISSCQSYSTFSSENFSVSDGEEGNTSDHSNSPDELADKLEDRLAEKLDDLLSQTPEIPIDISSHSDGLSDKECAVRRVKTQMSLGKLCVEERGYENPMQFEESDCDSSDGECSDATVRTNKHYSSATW

Work on `COc1ccc2c(O[C@@H]3C[C@H]4C(=O)N[C@]5(C(=O)O)CC5/C=C\CCCCC[C@H](NC(=O)OC5CCCC5)C(=O)N4C3)cc(-c3csc(NC(=O)C(C)C)n3)nc2c1C` (stereo not given in full) [BI 1230] yielded a residual activity [1] of 86%, a residual activity [2] of 99% and a residual activity [3] of 71%. For the same compound, the inhibition [4] was 57.4%, the residual activity [5] was 100% and the residual activity [6] was 100%. The residual activity [7] was 71%, the residual activity [8] was 91% and the residual activity [9] was 100%. For the same compound, the residual activity [10] was 100%, the residual activity [11] was 69% and the residual activity [12] was 83%. The inhibition [13] was 15.3%, the residual activity [14] was 87% and the residual activity [15] was 93%. For the same compound, the residual activity [16] was 100%, the residual activity [17] was 77% and the inhibition [18] was -8.36%. The residual activity [19] was 100%, the residual activity [20] was 85% and the residual activity [21] was 100%. The residual activity [22] was 100%, the residual activity [23] was 100% and the residual activity [24] was 93%. For the same compound, the residual activity [25] was 98%, the residual activity [26] was 79% and the residual activity [27] was 98%. The residual activity [28] was 64%, the residual activity [29] was 100% and the residual activity [30] was 100%. It also gave a residual activity [31] of 79%, a residual activity [32] of 100% and a residual activity [33] of 67%. It also gave a residual activity [34] of 99%, a residual activity [35] of 100% and a residual activity [36] of 75%. The residual activity [37] was 74%, the residual activity [38] was 70% and the residual activity [39] was 100%. It also gave an inhibition [40] of 16.6%, a residual activity [41] of 94% and a residual activity [42] of 98%. For the same compound, the residual activity [43] was 78%, the residual activity [44] was 100% and the residual activity [45] was 92%.
In the case of `O=C(N[C@H]1CCCCC/C=C\C2C[C@@]2(C(=O)O)NC(=O)[C@@H]2C[C@@H](Oc3ccncc3)CN2C1=O)OC1CCCC1` (stereo not given in full) [BI 1675], the residual activity [1] is reported as 100%, the residual activity [2] is reported as 100% and the residual activity [3] is reported as 81%. The inhibition [4] was -9.47%, the residual activity [5] was 100% and the residual activity [6] was 100%. It also gave a residual activity [7] of 95%, a residual activity [8] of 100% and a residual activity [9] of 95%. For the same compound, the residual activity [10] was 90%, the residual activity [11] was 88% and the residual activity [12] was 51%. The inhibition [13] was 0.78%, the residual activity [14] was 84% and the residual activity [15] was 94%. For the same compound, the residual activity [16] was 100%, the residual activity [17] was 86% and the inhibition [18] was -6.94%. It also gave a residual activity [19] of 100%, a residual activity [20] of 92% and a residual activity [21] of 100%. It also gave a residual activity [22] of 64%, a residual activity [23] of 99% and a residual activity [24] of 92%. The residual activity [25] was 100%, the residual activity [26] was 81% and the residual activity [27] was 82%. For the same compound, the residual activity [28] was 100%, the residual activity [29] was 75% and the residual activity [30] was 83%. The residual activity [31] was 89%, the residual activity [32] was 100% and the residual activity [33] was 75%. The residual activity [34] was 89%, the residual activity [35] was 100% and the residual activity [36] was 89%. The residual activity [37] was 99%, the residual activity [38] was 68% and the residual activity [39] was 98%. It also gave an inhibition [40] of -8.64%, a residual activity [41] of 100% and a residual activity [42] of 100%. The residual activity [43] was 100%, the residual activity [44] was 82% and the residual activity [45] was 100%.
